Format in all cases: functional, cell-based
One test concerns HCT-8. Description: Cytotoxicity against human HCT-8 cells assessed as reduction in cell growth incubated for 72 hrs by MTT assay. Particulars: HCT-8, 72 h. A general note: Formazan colour is commonly taken as a measure of viable cells.
The next test deals with HT-29. Description: Cytotoxicity against human HT-29 cells assessed as reduction in cell growth incubated for 72 hrs by MTT assay. Particulars: HT-29, 72 h.
The next test relates to SW-620. Kind of test: Cytotoxicity against human SW620 cells assessed as reduction in cell growth incubated for 72 hrs by MTT assay. Particulars: SW-620, 72 h.
The next test relates to MDA-MB-231. Description: Cytotoxicity against human MDA-MB-231 cells assessed as reduction in cell growth incubated for 72 hrs by MTT assay. The conditions noted are these: MDA-MB-231, 72 h.
Another test has as its system OVCAR-3. Kind of test: Cytotoxicity against human OVCAR-3 cells assessed as reduction in cell growth incubated for 72 hrs by MTT assay. Particulars: OVCAR-3, 72 h.
Another test concerns MDA-MB-435. Description: Cytotoxicity against human MDA-MB-435 cells assessed as reduction in cell growth incubated for 72 hrs by MTT assay. The conditions noted are these: MDA-MB-435, 72 h.
For the next test, the system named is NCI-H69. Description: Antiproliferative activity against human NCI-H69 cells assessed as reduction in cell viability incubated for 48 hrs by Cell-titer Glo luminescent assay. Particulars: NCI-H69, 48 h.
The next test has as its system NCI-H82. Kind of test: Antiproliferative activity against human NCI-H82 cells assessed as reduction in cell viability incubated for 48 hrs by Cell-titer Glo luminescent assay. The conditions noted are these: NCI-H82, 48 h.
The nature of test [1]: Antiproliferative activity against human NCI-H196 cells assessed as reduction in cell viability incubated for 48 hrs by Cell-titer Glo luminescent assay. Particulars: NCI-H196, 48 h.
Another test relates to NCI-H1963. Kind of test: Antiproliferative activity against human NCI-H1963 cells assessed as reduction in cell viability incubated for 48 hrs by Cell-titer Glo luminescent assay. Particulars: NCI-H1963, 48 h.
The test system of another test is NCI-H526. Kind of test: Antiproliferative activity against human NCI-H526 cells assessed as reduction in cell viability incubated for 48 hrs by Cell-titer Glo luminescent assay. Particulars: NCI-H526, 48 h.
In another test the test system is A549. Description: Antiproliferative activity against human A549 cells assessed as reduction in cell viability incubated for 48 hrs by Cell-titer Glo luminescent assay. The conditions noted are these: A549, 48 h.
The next test relates to NCI-H1299. Kind of test: Antiproliferative activity against human NCI-H1299 cells assessed as reduction in cell viability incubated for 48 hrs by Cell-titer Glo luminescent assay. The conditions noted are these: NCI-H1299, 48 h.
The nature of test [2]: Antiproliferative activity against human NSCLC cells assessed as reduction in cell viability incubated for 48 hrs by Cell-titer Glo luminescent assay.
Another test concerns HeLa. Kind of test: Antiproliferative activity against human HeLa cells assessed as reduction in cell viability by MTS assay.

For `C[C@H]1O[C@@H](O[C@H]2[C@@H](O)C[C@H](O[C@H]3[C@@H](O)C[C@H](O[C@H]4CC[C@@]5(C)[C@H](CC[C@@H]6[C@@H]5C[C@@H](O)[C@]5(C)[C@@H](C7=CC(=O)OC7)CC[C@]65O)C4)O[C@@H]3C)O[C@@H]2C)C[C@H](O)[C@@H]1O` [DIGOXIN], the IC50 in the test on HCT-8, in the test on HT-29, in the test with SW-620, with MDA-MB-231, in the test on OVCAR-3 and with MDA-MB-435 was 100 nM each time. Also, the IC50 (with NCI-H69; in the test with NCI-H82; in test [1]; in the test on NCI-H1963; with NCI-H526; with A549) was 50 nM in each case. Besides, the half-inhibitory concentration (IC50) (usually the concentration that inhibits the measured activity by half) in the test on NCI-H1299 was 50 nM; in test [2] it was 50 nM; in the test with HeLa, 0.2 nM.

Source of the values: ChEMBL document CHEMBL6083245, “Digoxin and its Na+/K+-ATPase-targeted actions on cardiovascular diseases and cancer” (Bioorg Med Chem, 2024).
